From patent US20180169045A1, “AMINO ACID COMPOSITIONS AND METHODS FOR THE TREATMENT OF LIVER DISEASES” (AXCELLA HEALTH INC., priority 2016, published 2018)

Assays:
[1] = system: LX-2 hepatic stellate cells; assay: TGFβ1-induced fibrogenic gene expression (Col1a1, Acta2, Timp2) in LX-2 cells, qRT-PCR; type: cell-based; set-up: key to Col1a1 gene expression, Mean: relative expression normalized to β-actin by ΔΔCt method; conditions: for Col1a1 gene expression, Mean: TGFβ1 Yes
[2] = system: STAM™ mice; assay: STAM mouse NASH model (Example 6): activated hepatic stellate cells, α-smooth muscle actin staining; type: in vivo; conditions: individual animals
Method: Amino Acid Composition A-1 and Obeticholic acid (6α-ethyl-chenodeoxycholic acid; “OCA”) were tested for their ability to treat NASH in the STAM™ model (Stelic Institute & Co., Tokyo, Japan; Saito K. et al., 2015 Sci Rep 5:12466). Two additional groups of normal C57BL/6 mice fed standard chow and vehicle treated STAM™ mice were included as controls. All animals receiving treatment or vehicle were treated starting at 6 weeks until 9 weeks of age. Compounds were administered via oral gavage, with a dose volume of 10 ml/kg. Amino Acid Composition A-1 was administered twice daily at a dose of 1500 mg/kg, and OCA was administered once daily at a dose of 30 mg/kg.
STAM™ is a model for non-alcoholic steatohepatitis (NASH) and hepatocellular carcinoma (HCC), developed by SMC Laboratories, Inc. and created by the combination of chemical and dietary interventions using C57BL/6 mice (Saito K. et al., 2015 Sci Rep 5:12466). Mice are treated with a low dose of streptozotocin at birth and fed a high fat diet starting at 4 weeks. Evidence of fatty liver is present by 5 weeks, followed by NASH by 7 weeks and fibrosis by 9 weeks. […]
Liver sections of all mice were stained for the marker α-smooth muscle actin (αSMA) to identify activated hepatic stellate cells. Images were quantified using the percent of positively stained area was used as a measure of stellate cell activation. […]

[3] = system: FATZO mice; assay: FATZO mouse NASH model (Example 15): liver histology (NAS, fibrosis score, Sirius Red, Oil Red O); type: in vivo; conditions: FATZO mice on WDF, 4 weeks
Excerpt: NASH was induced in 60 male FATZO mice by a western diet (Research Diet # D12079B; fat 40% kcal, protein 17% kcal, carbohydrate 43% kcal) supplemented with 5% fructose in the drinking water (WDF) during a 16 week induction phase. Diets and water were available ad libitum. Littermate control male FATZO mice fed with a control diet (n=6, Purina #5008; fat 17% kcal, protein 27% kcal, carbohydrate 56% kcal) and sterile water were set up for control purpose. Mice were housed in plastic cages with microisolator. Sterilized bedding was replaced once a week. Mice were housed three per cage and maintained on a twelve hour light cycle throughout study duration. Room temperature was monitored daily and maintained at 22-25° C. Body weight was recorded every week during the induction phase. […]
[…], […]+G, LRQNAC, OCA and Vehicle were administered by oral gavage at a volume of 10 mL/kg throughout the study. Dosages were calculated by daily body weight. […]
The livers were evaluated using the NASH liver criteria for scoring. In this mouse study, one cross section of liver for each case was analyzed with the NASH score system. […] The NAS can range from 0 to 8 and is calculated by the sum of scores of steatosis (0-3), lobular inflammation (0-3) and hepatocyte ballooning (0-2) from H&E stained sections. Fibrosis was scored (0-4) from picrosirius red stained slides. […]

[4] = individual amino acid at 1X HMDB concentration
[5] = individual amino acid at 50X HMDB concentration

Compound | Col1a1 gene expression, Mean [1, 4] | Col1a1 gene expression, Mean [1, 5] | Col1a1 expression of individual amino acids, in words ([1]; individual amino acid at 50× HMDB derived concentration) | Activated hepatic stellate cells (mean positively stained area, α-smooth muscle actin): raw data [2] | NAFLD activity score (NAS) compared to vehicle, in words [3]
N=C(N)NCCC[C@H](N)C(=O)O [ARG] | 1.620 | 1.970 |  |  | 
N[C@@H](CS)C(=O)O [CYS] | 2.491 | 1.695 |  |  | 
N[C@@H](CS)C(=O)O [Cysteine, L-Cysteine] |  |  | significant decrease |  | 
NC(=O)CC[C@H](N)C(=O)O [GLN] | 2.340 | 2.194 |  |  | 
CC(C)C[C@H](N)C(=O)O [LEU] | 1.901 | 2.372 |  |  | 
CC[C@H]1[C@@H](O)[C@@H]2[C@H](CC[C@]3(C)[C@@H]([C@H](C)CCC(=O)O)CC[C@@H]23)[C@@]2(C)CC[C@@H](O)C[C@@H]12 [OCA, 6α-ethyl-chenodeoxycholic acid] |  |  |  | 1.5 | no significant effect
CC(C)[C@H](N)C(=O)O [VAL] | 2.093 | 2.203 |  |  | 
